Measured values as given in US20210077382A1, “COMPOSITIONS, DEVICES, AND METHODS FOR THE TREATMENT OF OPIOID-RECEPTOR-MEDIATED CONDITIONS” (Opiant Phamaceuticals, Inc., priority 2016, published 2021).

Assay: Clinical pharmacokinetic crossover study of IN, IM and oral naltrexone; plasma naltrexone and 6β-naltrexol by LC-MS/MS
From the text: Study Goals. […] Secondary endpoints included adverse events (AEs), vital signs (heart rate, sitting blood pressure, and respiration rate), electrocardiogram (ECG), clinical laboratory changes and nasal irritation using the nasal irritation scale.
Study design. […] This was an in-patient open-label, crossover study involving approximately 14 healthy volunteers. […] Subjects stayed in the in-patient facility for 13 days to complete the entire study. Subjects were called 3 to 5 days after discharge to inquire concerning AEs and concomitant medications since discharge. Informed consent was obtained from all subjects, and all were screened for eligibility to participate in the study, including medical history, physical examination, clinical chemistry, coagulation markers, hematology, infectious disease serology, urinalysis, urine drug and alcohol toxicology screen, vital signs and ECG.
On days of study drug administration, a 12-lead ECG was performed approximately 1 hour prior to dosing and at approximately 1 and 4 hours post-dose. Vital signs were measured pre-dose and about 1 and 4 hours post-dose.
Study Drugs and Dosing. […] The IN (40 mg/mL) formulations were made by the staff pharmacist at Vince & Associates; the vehicle for the IN formulations was sterile water for injection. The IM formulation (2 mg/mL) was made by the staff pharmacist at Vince & Associates; the vehicle was sterile saline for injection.
Subjects stayed in the in-patient facility for 13 days to complete the entire study and were discharged 2 days after the fourth dose.
PK Assessments. […] Plasma was separated from whole blood and stored frozen at […] until assayed.
Analysis. […] Dose-adjusted values for AUCs and Cmax were calculated. The relative extent of IN and PO absorption (IN and PO versus IM) will be estimated from the dose-corrected AUCs.

[1] = naltrexone 2 mg IM, N = 10, listed as 6β-Naltrexol
[2] = naltrexone 4 mg IN plus […] Intravail, N = 12

Oc1ccc2c3c1O[C@H]1[C@H](O)CC[C@@]4(O)[C@@H](C2)N(CC2CC2)CC[C@]314 [6β-naltrexol]
Difference between the sexes for the PK parameters (IN, IM or PO administration, except naltrexone Cmax after 4 mg IN): no clinically meaningful difference | Mean Cmax of 6β-naltrexol (after the IN administration of naltrexone): approximately 3 ng/mL | Ratio of AUC0-inf for 6β-naltrexol compared to that of naltrexone (after the oral dose): 25 | AUC0-inf of 6β-naltrexol, mean (CV %) (naltrexone 2 mg IM, N = 10): 27.1 ng·h/mL | AUC0-inf/Dose of 6β-naltrexol, mean (CV %) (naltrexone 2 mg IM, N = 10): 15.0 (19.0) h · ng/mL/mg | AUC0-t of 6β-naltrexol, mean (CV %) (naltrexone 2 mg IM, N = 10): 25.1 (18.3) h · ng/mL | AUC0-t/Dose of 6β-naltrexol, mean (CV %) (naltrexone 2 mg IM, N = 10): 13.9 (18.3) h · ng/mL/mg | AUCextrap of 6β-naltrexol, mean (CV %) (naltrexone 2 mg IM, N = 10): 7.02 (29.4) % | Cmax of 6β-naltrexol, mean (CV %) (naltrexone 2 mg IM, N = 10): 1.5 ng/mL | Cmax/Dose of 6β-naltrexol, mean (CV %) (naltrexone 2 mg IM, N = 10): 0.838 ng/mL/mg | Tmax of 6β-naltrexol, median (minimum, maximum) (naltrexone 2 mg IM, N = 10): 3.00 h | t1/2 of 6β-naltrexol, mean (CV %) (naltrexone 2 mg IM, N = 10): 12.4 (13.2) h | λz of 6β-naltrexol, mean (CV %) (naltrexone 2 mg IM, N = 10): 0.0570 (14.8) 1/h | Cmax of 6β-naltrexol, mean (CV %) [1]: 1.52 (26.8) ng/mL | Cmax/Dose of 6β-naltrexol, mean (CV %) [1]: 0.838 (26.8) ng/mL/mg | Mean concentration of 6β-naltrexol (naltrexone 2 mg IN, hour 0): 0.0661 ng/mL | Mean concentration of 6β-naltrexol (naltrexone 2 mg IN, hour 0.042): 0.0627 ng/mL | Mean concentration of 6β-naltrexol (naltrexone 2 mg IN, hour 0.083): 0.12 ng/mL | Mean concentration of 6β-naltrexol (naltrexone 2 mg IN, hour 0.17): 0.283 ng/mL | Mean concentration of 6β-naltrexol (naltrexone 2 mg IN, hour 0.25): 0.454 ng/mL | Mean concentration of 6β-naltrexol (naltrexone 2 mg IN, hour 0.33): 0.677 ng/mL | Mean concentration of 6β-naltrexol (naltrexone 2 mg IN, hour 0.5): 0.852 ng/mL | Mean concentration of 6β-naltrexol (naltrexone 2 mg IN, hour 0.75): 1.08 ng/mL | Mean concentration of 6β-naltrexol (naltrexone 2 mg IN, hour 1): 1.1 ng/mL | Mean concentration of 6β-naltrexol (naltrexone 2 mg IN, hour 2): 1.39 ng/mL | Mean concentration of 6β-naltrexol (naltrexone 2 mg IN, hour 3): 1.48 ng/mL | Mean concentration of 6β-naltrexol (naltrexone 2 mg IN, hour 4): 1.46 ng/mL | Mean concentration of 6β-naltrexol (naltrexone 2 mg IN, hour 6): 1.3 ng/mL | Mean concentration of 6β-naltrexol (naltrexone 2 mg IN, hour 8): 1.08 ng/mL | Mean concentration of 6β-naltrexol (naltrexone 2 mg IN, hour 12): 0.81 ng/mL | Mean concentration of 6β-naltrexol (naltrexone 2 mg IN, hour 16): 0.595 ng/mL | Mean concentration of 6β-naltrexol (naltrexone 2 mg IN, hour 24): 0.365 ng/mL | Mean concentration of 6β-naltrexol (naltrexone 2 mg IN, hour 30): 0.255 ng/mL | Mean concentration of 6β-naltrexol (naltrexone 2 mg IN, hour 36): 0.18 ng/mL | Mean concentration of 6β-naltrexol (naltrexone 2 mg IN, hour 48): 0.106 ng/mL | Mean concentration of 6β-naltrexol (naltrexone 4 mg IN + […] Intravail, hour 0): 0.0682 ng/mL | Mean concentration of 6β-naltrexol (naltrexone 4 mg IN + […] Intravail, hour 0.042): 0.082 ng/mL | Mean concentration of 6β-naltrexol (naltrexone 4 mg IN + […] Intravail, hour 0.083): 0.238 ng/mL | Mean concentration of 6β-naltrexol (naltrexone 4 mg IN + […] Intravail, hour 0.17): 0.994 ng/mL | Mean concentration of 6β-naltrexol (naltrexone 4 mg IN + […] Intravail, hour 0.25): 1.86 ng/mL | Mean concentration of 6β-naltrexol (naltrexone 4 mg IN + […] Intravail, hour 0.33): 2.55 ng/mL | Mean concentration of 6β-naltrexol (naltrexone 4 mg IN + […] Intravail, hour 0.5): 2.84 ng/mL | Mean concentration of 6β-naltrexol (naltrexone 4 mg IN + […] Intravail, hour 0.75): 2.93 ng/mL | Mean concentration of 6β-naltrexol (naltrexone 4 mg IN + […] Intravail, hour 1): 2.73 ng/mL | Mean concentration of 6β-naltrexol (naltrexone 4 mg IN + […] Intravail, hour 2): 2.9 ng/mL | Mean concentration of 6β-naltrexol (naltrexone 4 mg IN + […] Intravail, hour 3): 2.61 ng/mL | Mean concentration of 6β-naltrexol (naltrexone 4 mg IN + […] Intravail, hour 4): 2.45 ng/mL | Mean concentration of 6β-naltrexol (naltrexone 4 mg IN + […] Intravail, hour 6): 2.03 ng/mL | Mean concentration of 6β-naltrexol (naltrexone 4 mg IN + […] Intravail, hour 8): 1.67 ng/mL | Mean concentration of 6β-naltrexol (naltrexone 4 mg IN + […] Intravail, hour 12): 1.25 ng/mL | Mean concentration of 6β-naltrexol (naltrexone 4 mg IN + […] Intravail, hour 16): 0.923 ng/mL | Mean concentration of 6β-naltrexol (naltrexone 4 mg IN + […] Intravail, hour 24): 0.618 ng/mL | Mean concentration of 6β-naltrexol (naltrexone 4 mg IN + […] Intravail, hour 30): 0.457 ng/mL | Mean concentration of 6β-naltrexol (naltrexone 4 mg IN + […] Intravail, hour 36): 0.312 ng/mL | Mean concentration of 6β-naltrexol (naltrexone 4 mg IN + […] Intravail, hour 48): 0.175 ng/mL | AUC0-inf of 6β-naltrexol, mean (CV %) [2]: 46.3 (18.3) h · ng/mL | AUC0-inf/Dose of 6β-naltrexol, mean (CV %) [2]: 12.8 (18.3) h · ng/mL/mg | AUC0-t of 6β-naltrexol, mean (CV %) [2]: 43.0 (17.4) h · ng/mL | AUC0-t/Dose of 6β-naltrexol, mean (CV %) [2]: 11.9 (17.4) h · ng/mL/mg | AUCextrap of 6β-naltrexol, mean (CV %) [2]: 7.02 (37.3) % | Cmax of 6β-naltrexol, mean (CV %) [2]: 3.29 (23.7) ng/mL | Cmax/Dose of 6β-naltrexol, mean (CV %) [2]: 0.908 (23.7) ng/mL/mg | Tmax of 6β-naltrexol, median (minimum, maximum) [2]: 0.75 h | t1/2 of 6β-naltrexol, mean (CV %) [2]: 12.8 (14.6) h
